Results as given in article PMC6308032 (Molecular Metabolism, 2018).

Legend:
[1] = Clinical pharmacokinetics, SAD part; assay type: in vivo; conditions: human; for AUC(0-inf) / CL/F / Cmax / Tmax / Vd/F / half-life: plasma, sc
[2] = Clinical pharmacokinetics, MAD part; assay type: in vivo; conditions: human, SC once weekly
patients with T2DM = test: Adverse events, Phase 1b POC part; assay type: in vivo, human; conditions: for Any TEAE: T2DM patients
[3] = tested on: healthy subjects and patients with T2DM; test: Other safety laboratory parameters; assay type: in vivo, human
[4] = Immunogenicity, anti-drug antibody; assay type: in vivo, human; conditions: whole study
[5] = tested on: healthy subjects and patients with T2DM; test: ECG analysis; assay type: in vivo, human
healthy subjects = test: Pharmacodynamics; assay type: in vivo, human; conditions: MAD, dulaglutide 1.5 mg/wk, LSM

CC[C@H](C)[C@H](NC(=O)[C@H](CC(C)C)NC(=O)[C@H](Cc1c[nH]c2ccccc12)NC(=O)[C@H](CCC(N)=O)NC(=O)[C@@H](NC(=O)[C@H](Cc1ccccc1)NC(=O)[C@H](C)NC(=O)[C@H](CCCCNC(=O)COCCOCCNC(=O)COCCOCCNC(=O)CC[C@H](NC(=O)CCCCCCCCCCCCCCCCCCC(=O)O)C(=O)O)NC(=O)[C@H](CCC(N)=O)NC(=O)[C@H](C)NC(=O)[C@@H](NC(=O)[C@H](CCCCN)NC(=O)[C@H](CC(=O)O)NC(=O)[C@H](CC(C)C)NC(=O)C(C)(C)NC(=O)[C@@H](NC(=O)[C@H](CO)NC(=O)[C@H](Cc1ccc(O)cc1)NC(=O)[C@H](CC(=O)O)NC(=O)[C@H](CO)NC(=O)[C@@H](NC(=O)[C@H](Cc1ccccc1)NC(=O)[C@@H](NC(=O)CNC(=O)[C@H](CCC(=O)O)NC(=O)C(C)(C)NC(=O)[C@@H](N)Cc1ccc(O)cc1)[C@@H](C)O)[C@@H](C)O)[C@@H](C)CC)[C@@H](C)CC)C(C)C)C(=O)N[C@@H](C)C(=O)NCC(=O)NCC(=O)N1CCC[C@H]1C(=O)N[C@@H](CO)C(=O)N[C@@H](CO)C(=O)NCC(=O)N[C@@H](C)C(=O)N1CCC[C@H]1C(=O)N1CCC[C@H]1C(=O)N1CCC[C@H]1C(=O)N[C@@H](CO)C(N)=O [LY3298176]
time of maximum concentration after dosing ([1]; SC, over the doses studied): 24 to 48 h | AUC(0-inf) ([1]; 0.25 mg): 5760 ng·h/mL | CL/F ([1]; 0.25 mg): 0.723 mL/min | Cmax ([1]; 0.25 mg): 26 ng/mL | Tmax ([1]; 0.25 mg): 48 h | Vd/F ([1]; 0.25 mg): 7.26 L | half-life ([1]; 0.25 mg): 116 h | AUC(0-inf) ([1]; 0.5 mg): 12000 ng·h/mL | CL/F ([1]; 0.5 mg): 0.693 mL/min | Cmax ([1]; 0.5 mg): 57.7 ng/mL | Tmax ([1]; 0.5 mg): 48 h | Vd/F ([1]; 0.5 mg): 7.46 L | half-life ([1]; 0.5 mg): 124 h | AUC(0-inf) ([1]; 1 mg): 22600 ng·h/mL | CL/F ([1]; 1 mg): 0.738 mL/min | Cmax ([1]; 1 mg): 108 ng/mL | Tmax ([1]; 1 mg): 24 h | Vd/F ([1]; 1 mg): 6.76 L | AUC(0-inf) ([1]; 2.5 mg): 53200 ng·h/mL | CL/F ([1]; 2.5 mg): 0.783 mL/min | Cmax ([1]; 2.5 mg): 231 ng/mL | Tmax ([1]; 2.5 mg): 24 h | Vd/F ([1]; 2.5 mg): 8.15 L | AUC(0-inf) ([1]; 5 mg): 90500 ng·h/mL | CL/F ([1]; 5 mg): 0.922 mL/min | Cmax ([1]; 5 mg): 397 ng/mL | Tmax ([1]; 5 mg): 24 h | Vd/F ([1]; 5 mg): 9.8 L | AUC(0-inf) ([1]; 8 mg): 169000 ng·h/mL | CL/F ([1]; 8 mg): 0.787 mL/min | Cmax ([1]; 8 mg): 874 ng/mL | Tmax ([1]; 8 mg): 48 h | Vd/F ([1]; 8 mg): 7.55 L | half-life ([1]; mean half-life): ~120 h | average accumulation following four weekly doses [2]: 1.58 | mean steady-state volume of distribution [2]: 9.5 L | Abdominal distension (patients with T2DM; 0.5 mg, N=9): 0 (0.0) n (%) | Abdominal pain (patients with T2DM; 0.5 mg, N=9): 0 (0.0) n (%) | Acute pancreatitis (patients with T2DM; 0.5 mg, N=9): 0 (0.0) n (%) | Decreased appetite (patients with T2DM; 0.5 mg, N=9): 2 (22.2) n (%) | Dermatitis allergic (patients with T2DM; 0.5 mg, N=9): 0 (0.0) n (%) | Diarrhoea (patients with T2DM; 0.5 mg, N=9): 1 (11.1) n (%) | Dyspepsia (patients with T2DM; 0.5 mg, N=9): 0 (0.0) n (%) | Eructation (patients with T2DM; 0.5 mg, N=9): 0 (0.0) n (%) | Gastrooesophageal reflux disease (patients with T2DM; 0.5 mg, N=9): 0 (0.0) n (%) | Headache (patients with T2DM; 0.5 mg, N=9): 1 (11.1) n (%) | Hepatic enzyme increased (patients with T2DM; 0.5 mg, N=9): 0 (0.0) n (%) | Injection site reaction (patients with T2DM; 0.5 mg, N=9): 0 (0.0) n (%) | Nausea (patients with T2DM; 0.5 mg, N=9): 1 (11.1) n (%) | Pancreatic enzyme increased (patients with T2DM; 0.5 mg, N=9): 0 (0.0) n (%) | Serious adverse events (patients with T2DM; 0.5 mg, N=9): 0 (0.0) n (%) | Severe hypoglycaemia (patients with T2DM; 0.5 mg, N=9): 0 (0.0) n (%) | Study discontinuation due to adverse events (patients with T2DM; 0.5 mg, N=9): 0 (0.0) n (%) | TEAE Mild, events (patients with T2DM; 0.5 mg, N=9): 15 events | TEAE Moderate, events (patients with T2DM; 0.5 mg, N=9): 0 events | TEAE Severe, events (patients with T2DM; 0.5 mg, N=9): 0 events | Total hypoglycaemia (≤70 mg/dL) (patients with T2DM; 0.5 mg, N=9): 0 (0.0) n (%) | Vomiting (patients with T2DM; 0.5 mg, N=9): 1 (11.1) n (%) | Weight decrease (TEAE) (patients with T2DM; 0.5 mg, N=9): 0 (0.0) n (%) | Abdominal distension (patients with T2DM; 5 mg, N=9): 1 (11.1) n (%) | Abdominal pain (patients with T2DM; 5 mg, N=9): 0 (0.0) n (%) | Acute pancreatitis (patients with T2DM; 5 mg, N=9): 0 (0.0) n (%) | Decreased appetite (patients with T2DM; 5 mg, N=9): 6 (66.7) n (%) | Dermatitis allergic (patients with T2DM; 5 mg, N=9): 0 (0.0) n (%) | Diarrhoea (patients with T2DM; 5 mg, N=9): 1 (11.1) n (%) | Dyspepsia (patients with T2DM; 5 mg, N=9): 0 (0.0) n (%) | Eructation (patients with T2DM; 5 mg, N=9): 0 (0.0) n (%) | Gastrooesophageal reflux disease (patients with T2DM; 5 mg, N=9): 1 (11.1) n (%) | Headache (patients with T2DM; 5 mg, N=9): 0 (0.0) n (%) | Hepatic enzyme increased (patients with T2DM; 5 mg, N=9): 0 (0.0) n (%) | Injection site reaction (patients with T2DM; 5 mg, N=9): 0 (0.0) n (%) | Nausea (patients with T2DM; 5 mg, N=9): 1 (11.1) n (%) | Pancreatic enzyme increased (patients with T2DM; 5 mg, N=9): 0 (0.0) n (%) | Serious adverse events (patients with T2DM; 5 mg, N=9): 0 (0.0) n (%) | Severe hypoglycaemia (patients with T2DM; 5 mg, N=9): 0 (0.0) n (%) | Study discontinuation due to adverse events (patients with T2DM; 5 mg, N=9): 3 (33.3) n (%) | TEAE Mild, events (patients with T2DM; 5 mg, N=9): 17 events | TEAE Moderate, events (patients with T2DM; 5 mg, N=9): 0 events | TEAE Severe, events (patients with T2DM; 5 mg, N=9): 0 events | Total hypoglycaemia (≤70 mg/dL) (patients with T2DM; 5 mg, N=9): 0 (0.0) n (%) | Vomiting (patients with T2DM; 5 mg, N=9): 0 (0.0) n (%) | Weight decrease (TEAE) (patients with T2DM; 5 mg, N=9): 0 (0.0) n (%) | Abdominal distension (patients with T2DM; 5/5/10/10 mg, N=12): 2 (16.7) n (%) | Abdominal pain (patients with T2DM; 5/5/10/10 mg, N=12): 0 (0.0) n (%) | Acute pancreatitis (patients with T2DM; 5/5/10/10 mg, N=12): 0 (0.0) n (%) | Decreased appetite (patients with T2DM; 5/5/10/10 mg, N=12): 5 (41.7) n (%) | Dermatitis allergic (patients with T2DM; 5/5/10/10 mg, N=12): 0 (0.0) n (%) | Diarrhoea (patients with T2DM; 5/5/10/10 mg, N=12): 3 (25.0) n (%) | Dyspepsia (patients with T2DM; 5/5/10/10 mg, N=12): 3 (25.0) n (%) | Eructation (patients with T2DM; 5/5/10/10 mg, N=12): 1 (8.3) n (%) | Gastrooesophageal reflux disease (patients with T2DM; 5/5/10/10 mg, N=12): 1 (8.3) n (%) | Headache (patients with T2DM; 5/5/10/10 mg, N=12): 0 (0.0) n (%) | Hepatic enzyme increased (patients with T2DM; 5/5/10/10 mg, N=12): 1 (8.3) n (%) | Injection site reaction (patients with T2DM; 5/5/10/10 mg, N=12): 0 (0.0) n (%) | Nausea (patients with T2DM; 5/5/10/10 mg, N=12): 1 (8.3) n (%) | Pancreatic enzyme increased (patients with T2DM; 5/5/10/10 mg, N=12): 0 (0.0) n (%) | Serious adverse events (patients with T2DM; 5/5/10/10 mg, N=12): 0 (0.0) n (%) | Severe hypoglycaemia (patients with T2DM; 5/5/10/10 mg, N=12): 0 (0.0) n (%) | Study discontinuation due to adverse events (patients with T2DM; 5/5/10/10 mg, N=12): 0 (0.0) n (%) | TEAE Mild, events (patients with T2DM; 5/5/10/10 mg, N=12): 54 events | TEAE Moderate, events (patients with T2DM; 5/5/10/10 mg, N=12): 1 events | TEAE Severe, events (patients with T2DM; 5/5/10/10 mg, N=12): 0 events | Total hypoglycaemia (≤70 mg/dL) (patients with T2DM; 5/5/10/10 mg, N=12): 2 (16.7) n (%) | Vomiting (patients with T2DM; 5/5/10/10 mg, N=12): 1 (8.3) n (%) | Weight decrease (TEAE) (patients with T2DM; 5/5/10/10 mg, N=12): 2 (16.7) n (%) | Abdominal distension (patients with T2DM; 5/5/10/15 mg, N=12): 7 (58.3) n (%) | Abdominal pain (patients with T2DM; 5/5/10/15 mg, N=12): 2 (16.7) n (%) | Acute pancreatitis (patients with T2DM; 5/5/10/15 mg, N=12): 0 (0.0) n (%) | Decreased appetite (patients with T2DM; 5/5/10/15 mg, N=12): 11 (91.7) n (%) | Dermatitis allergic (patients with T2DM; 5/5/10/15 mg, N=12): 2 (16.7) n (%) | Diarrhoea (patients with T2DM; 5/5/10/15 mg, N=12): 5 (41.7) n (%) | Dyspepsia (patients with T2DM; 5/5/10/15 mg, N=12): 0 (0.0) n (%) | Eructation (patients with T2DM; 5/5/10/15 mg, N=12): 4 (33.3) n (%) | Gastrooesophageal reflux disease (patients with T2DM; 5/5/10/15 mg, N=12): 5 (41.7) n (%) | Headache (patients with T2DM; 5/5/10/15 mg, N=12): 2 (16.7) n (%) | Hepatic enzyme increased (patients with T2DM; 5/5/10/15 mg, N=12): 1 (8.3) n (%) | Injection site reaction (patients with T2DM; 5/5/10/15 mg, N=12): 0 (0.0) n (%) | Nausea (patients with T2DM; 5/5/10/15 mg, N=12): 6 (50.0) n (%) | Pancreatic enzyme increased (patients with T2DM; 5/5/10/15 mg, N=12): 1 (8.3) n (%) | Serious adverse events (patients with T2DM; 5/5/10/15 mg, N=12): 0 (0.0) n (%) | Severe hypoglycaemia (patients with T2DM; 5/5/10/15 mg, N=12): 0 (0.0) n (%) | Study discontinuation due to adverse events (patients with T2DM; 5/5/10/15 mg, N=12): 0 (0.0) n (%) | TEAE Mild, events (patients with T2DM; 5/5/10/15 mg, N=12): 87 events | TEAE Moderate, events (patients with T2DM; 5/5/10/15 mg, N=12): 9 events | TEAE Severe, events (patients with T2DM; 5/5/10/15 mg, N=12): 0 events | Total hypoglycaemia (≤70 mg/dL) (patients with T2DM; 5/5/10/15 mg, N=12): 1 (8.3) n (%) | Vomiting (patients with T2DM; 5/5/10/15 mg, N=12): 9 (75.0) n (%) | Weight decrease (TEAE) (patients with T2DM; 5/5/10/15 mg, N=12): 2 (16.7) n (%) | Any TEAE (patients with T2DM; 0.5 mg QW x4 SC, N=9): 5 (55.6) n (%) | Any TEAE (patients with T2DM; 5 mg QW x4 SC, N=9): 7 (77.8) n (%) | Any TEAE (patients with T2DM; 5/5/10/10 mg QW SC, N=12): 10 (83.3) n (%) | Any TEAE (patients with T2DM; 5/5/10/15 mg QW SC, N=12): 11 (91.7) n (%) | lipase and amylase, mean values compared to baseline [3]: Increases from baseline in mean values of lipase and amylase within the normal range | subjects who developed treatment-emergent or treatment-boosted ADAs [4]: Four | drug-related QT prolongation [5]: no signal of drug-related QT prolongation

Dulaglutide: selective GLP-1 receptor agonist, positive control, 1.5 mg/0.5 mL single-use pen
Body Weight Change from Baseline, Day 29 (healthy subjects): -1.3 kg
